Some results are limits rather than exact numbers.

One assay relates to Luciferase-encoding HCMV (AD169 strain). Put plainly: microbe, parasite or virus in culture. It counts as cell-based. The note with it: read-out: CMV-Luc Cellular EC50; NN-NHDF cells, MOI of 1, 72 hrs.
Take `Cn1nc(C(=O)NCc2ccc(C#N)cc2)c2c1C(=O)N(CC1(S(=O)(=O)C(C)(C)COC(F)CO)CC1)CC2` (single isomer, unassigned) [Example 81, (R)- or (S)—N-(4-cyanobenzyl)-6-((1-((1-(1-fluoro-2-hydroxyethoxy)-2-methylpropan-2-yl)sulfonyl)cyclopropyl)methyl)-1-methyl-7-oxo-4,5,6,7-tetrahydro-1H-pyrazolo[3,4-c]pyridine-3-carboxamide]: the EC50 worked out at 42 nM.

With `CC1=NOC(C(C)(C)S(=O)(=O)C2(CN3CCc4c(C(=O)NCc5ccc(C#N)cc5)nn(C)c4C3=O)CC2)C1` (single isomer, unassigned) [Example 112, (R)- or (S)—N-(4-Cyanobenzyl)-1-methyl-6-((1-((2-(3-methyl-4,5-dihydroisoxazol-5-yl)propan-2-yl)sulfonyl)cyclopropyl)methyl)-7-oxo-4,5,6,7-tetrahydro-1H-pyrazolo[3,4-c]pyridine-3-carboxamide], the EC50 was determined as 64 nM.

Another assay has as its target human HSV DNA polymerase UL30 (Human herpesvirus 1 (strain 17) (HHV-1) (Human herpes simplex virus 1), UniProt P04293). Put plainly: biochemical. The following applies: 625 pM HSV polymerase, 20 minutes at room temperature; read-out: HSV-polymerase Biochemical IC50.
Take `Cn1nc(C(=O)COc2ccc(C#N)cc2)c2c1C(=O)N(CC1(S(=O)(=O)C3CC3)CC1)CC2` [Example 25, 4-(2-(6-((1-(cyclopropylsulfonyl)cyclopropyl)methyl)-1-methyl-7-oxo-4,5,6,7-tetrahydro-1H-pyrazolo[3,4-c]pyridin-3-yl)-2-oxoethoxy)benzonitrile]: the IC50 was 53 nM.

Consider `Cn1nc(-c2cc(Cc3ccc(C#N)cc3)on2)c2c1C(=O)N(CC1(S(=O)(=O)C3CC3)CC1)CC2` [Example 34, 4-((3-(6-((1-(Cyclopropylsulfonyl)cyclopropyl)methyl)-1-methyl-7-oxo-4,5,6,7-tetrahydro-1H-pyrazolo[3,4-c]pyridin-3-yl)isoxazol-5-yl)methyl)benzonitrile], for which the IC50 came out at 10 nM.

Turning to `Cn1nc(-c2nnnn2Cc2ccc(C#N)cc2)c2c1C(=O)N(CC1(S(=O)(=O)C3CC3)CC1)CC2` [Example 30, 4-((5-(6-((1-(cyclopropylsulfonyl)cyclopropyl)methyl)-1-methyl-7-oxo-4,5,6,7-tetrahydro-1H-pyrazolo[3,4-c]pyridin-3-yl)-1H-tetrazol-1-yl)methyl)benzonitrile], the IC50 was determined as 6240 nM.

Turning to `Cn1nc(C(=O)NCc2ccc(C#N)cc2)c2c1C(=O)N(CC1(S(=O)(=O)C3(COCCN)CC3)CC1)CC2` [Example 96, 6-((1-((1-((2-aminoethoxy)methyl)cyclopropyl)sulfonyl)cyclopropyl)methyl)-N-(4-cyanobenzyl)-1-methyl-7-oxo-4,5,6,7-tetrahydro-1H-pyrazolo[3,4-c]pyridine-3-carboxamide], the IC50 was determined as 20 nM.

As for `CC(C)(CO)S(=O)(=O)C1(CN2CCc3c(C(=O)NCc4ccc(C#N)cc4)nn(CCOCCBr)c3C2=O)CC1` [Example 238, 1-(2-(2-Bromoethoxy)ethyl)-N-(4-cyanobenzyl)-6-((1-((1-hydroxy-2-methylpropan-2-yl)sulfonyl)cyclopropyl)methyl)-7-oxo-4,5,6,7-tetrahydro-1H-pyrazolo[3,4-c]pyridine-3-carboxamide], the IC50 came to 16 nM.

Turning to `Cn1nc(C(=O)NCc2ccc(C#N)cc2)c2c1C(=O)N(CC1(S(=O)(=O)NC3CC3)CC1)CC2` [Example 129, N-(4-cyanobenzyl)-6-((1-(N-cyclopropylsulfamoyl)cyclopropyl)methyl)-1-methyl-7-oxo-4,5,6,7-tetrahydro-1H-pyrazolo[3,4-c]pyridine-3-carboxamide], the 50% inhibitory concentration (IC50) worked out at 213 nM.

As to `Cn1nc(C(=O)NCc2ccc(C#N)cc2)c2c1C(=O)N(CC1(S(=O)(=O)C(C)(C)CN3CC(O)C3)CC1)CC2` [Example 65, N-(4-Cyanobenzyl)-6-((1-((1-(3-hydroxyazetidin-1-yl)-2-methylpropan-2-yl)sulfonyl)cyclopropyl)methyl)-1-methyl-7-oxo-4,5,6,7-tetrahydro-1H-pyrazolo[3,4-c]pyridine-3-carboxamide], the IC50 was 52 nM.

For the molecule `C[C@H](NC(=O)c1nn(C)c2c1CCN(CC1(S(=O)(=O)C3CC3)CC1)C2=O)c1ccc(C#N)cc1` [Example 16, (S)-N-(1-(4-Cyanophenyl)ethyl)-6-((1-(cyclopropylsulfonyl)cyclopropyl)methyl)-1-methyl-7-oxo-4,5,6,7-tetrahydro-1H-pyrazolo[3,4-c]pyridine-3-carboxamide], the IC50 is 239 nM.

For `N#Cc1ccc(CNC(=O)c2nn(C3CC3)c3c2CCN(CC2(S(=O)(=O)C4CC4)CC2)C3=O)cc1` [Example 43, N-(4-Cyanobenzyl)-1-cyclopropyl-6-((1-(cyclopropylsulfonyl)cyclopropyl)methyl)-7-oxo-4,5,6,7-tetrahydro-1H-pyrazolo[3,4-c]pyridine-3-carboxamide], the IC50 worked out at 101 nM.

Turning to `C[C@@H](NC(=O)c1nn(C)c2c1CCN(CC1(S(=O)(=O)C(C)(C)CO)CC1)C2=O)c1ccc(C#N)cc1` [Example 55, (R)-N-(1-(4-Cyanophenyl)ethyl)-6-((1-((1-hydroxy-2-methylpropan-2-yl)sulfonyl)cyclopropyl)methyl)-1-methyl-7-oxo-4,5,6,7-tetrahydro-1H-pyrazolo[3,4-c]pyridine-3-carboxamide], the IC50 was greater than 25000 nM.

In the case of `Cn1nc(C(=O)NCc2ccc(C#N)cc2)c2c1C(=O)N(CC1(S(=O)(=O)C(C)(C)COCC(C)(C)O)CC1)CC2` [Example 86, N-(4-Cyanobenzyl)-6-((1-((1-(2-hydroxy-2-methylpropoxy)-2-methylpropan-2-yl)sulfonyl)cyclopropyl)methyl)-1-methyl-7-oxo-4,5,6,7-tetrahydro-1H-pyrazolo[3,4-c]pyridine-3-carboxamide], the IC50 amounted to 159 nM.

Consider `Cn1nc(C(=O)NCc2ccc(Cl)cc2)c2c1C(=O)N(CC1(S(=O)(=O)C(C)(C)[C@H](O)CO)CC1)CC2` [Example 191, (R)—N-(4-Chlorobenzyl)-6-((1-((3,4-dihydroxy-2-methylbutan-2-yl)sulfonyl)cyclopropyl)methyl)-1-methyl-7-oxo-4,5,6,7-tetrahydro-1H-pyrazolo[3,4-c]pyridine-3-carboxamide], for which the half-maximal inhibitory concentration (IC50) is 11 nM.

As for `Cn1nc(C(=O)NCc2ccc(C#N)cc2)c2c1C(=O)N(CC1(S(=O)(=O)N3CC[C@@H](O)C3)CC1)CC2` [Example 126, (R)-N-(4-Cyanobenzyl)-6-((1-((3-hydroxypyrrolidin-1-yl)sulfonyl)cyclopropyl)methyl)-1-methyl-7-oxo-4,5,6,7-tetrahydro-1H-pyrazolo[3,4-c]pyridine-3-carboxamide], the IC50 turned out to be 84 nM.

Consider `Cc1cccc(NS(=O)(=O)C2(CN3CCc4c(C(=O)NCc5ccc(C#N)cc5)nn(C)c4C3=O)CC2)n1` [Example 157], for which the IC50 is 46 nM.

`Cn1nc(C(=O)NCc2ccc(C#N)cc2)c2c1C(=O)N(CC1(S(=O)(=O)C(C)(C)CNCCO)CC1)CC2` [Example 69, N-(4-Cyanobenzyl)-6-((1-((1-((2-hydroxyethyl)amino)-2-methylpropan-2-yl)sulfonyl)cyclopropyl)methyl)-1-methyl-7-oxo-4,5,6,7-tetrahydro-1H-pyrazolo[3,4-c]pyridine-3-carboxamide]: the IC50 is 40 nM.

With `CO[C@@H]1CCN(CC(C)(C)S(=O)(=O)C2(CN3CCc4c(C(=O)NCc5ccc(C#N)cc5)nn(C)c4C3=O)CC2)C1` [Example 62, (R)-N-(4-cyanobenzyl)-6-((1-((1-(3-methoxypyrrolidin-1-yl)-2-methylpropan-2-yl)sulfonyl)cyclopropyl)methyl)-1-methyl-7-oxo-4,5,6,7-tetrahydro-1H-pyrazolo[3,4-c]pyridine-3-carboxamide], the half-maximal inhibitory concentration (IC50) was found to be 139 nM.

Take `Cc1cccnc1NS(=O)(=O)C1(CN2CCc3c(C(=O)NCc4ccc(C#N)cc4)nn(C)c3C2=O)CC1` [Example 164]: the IC50 amounted to 185 nM.

Consider `CS(=O)(=O)C1(CN2CCc3c(C(=O)NCc4ccc(Cl)cc4)nn(CCO)c3C2=O)CC1` [Example 219], for which the IC50 turned out to be 401 nM.

With `Cn1nc(C(=O)NCc2ccc(Cl)nc2)c2c1C(=O)N(CC1(S(=O)(=O)C(C)(C)CO)CC1)CC2` [Example 51, N-((6-Chloropyridin-3-yl)methyl)-6-((1-((1-hydroxy-2-methylpropan-2-yl)sulfonyl)cyclopropyl)methyl)-1-methyl-7-oxo-4,5,6,7-tetrahydro-1H-pyrazolo[3,4-c]pyridine-3-carboxamide], the IC50 is 89 nM.

Consider `CC(C)(O)Cn1nc(C(=O)NCc2ccc(Cl)cc2)c2c1C(=O)N(CC1(S(=O)(=O)C3CC3)CC1)CC2` [Example 229, N-(4-Chlorobenzyl)-6-((1-(cyclopropylsulfonyl)cyclopropyl)methyl)-1-(2-hydroxy-2-methylpropyl)-7-oxo-4,5,6,7-tetrahydro-1H-pyrazolo[3,4-c]pyridine-3-carboxamide], for which the IC50 worked out at 31 nM.

Turning to `Cn1nc(C(=O)NCc2ccc(C#N)cc2)c2c1C(=O)N(CC1(S(=O)(=O)CC(C)(C)O)CC1)CC2` [Example 118, N-(4-Cyanobenzyl)-6-((1-((2-hydroxy-2-methylpropyl)sulfonyl)cyclopropyl)methyl)-1-methyl-7-oxo-4,5,6,7-tetrahydro-1H-pyrazolo[3,4-c]pyridine-3-carboxamide], the IC50 was 412 nM.

Consider `COc1cc(CNC(=O)c2nn(C)c3c2CCN(CC2(S(=O)(=O)C4CC4)CC2)C3=O)ccc1C#N` [Example 15, N-(4-Cyano-3-methoxybenzyl)-6-((1-(cyclopropylsulfonyl)cyclopropyl)methyl)-1-methyl-7-oxo-4,5,6,7-tetrahydro-1H-pyrazolo[3,4-c]pyridine-3-carboxamide], for which the IC50 was 385 nM.

With `Cn1nc(C(=O)NCc2ccc(Cl)cc2)c2c1C(=O)N(CC1(S(N)(=O)=O)CC1)CC2` [Example 121, N-(4-Chlorobenzyl)-1-methyl-7-oxo-6-((1-sulfamoylcyclopropyl)methyl)-4,5,6,7-tetrahydro-1H-pyrazolo[3,4-c]pyridine-3-carboxamide], the IC50 stood at 671 nM.

Regarding `Cn1nc(C(=O)NCc2ccc(C#N)cc2)c2c1C(=O)N(CC1(S(=O)(=O)C(C)(C)CN)CC1)CC2` [Example 70, 6-((1-((1-Amino-2-methylpropan-2-yl)sulfonyl)cyclopropyl)methyl)-N-(4-cyanobenzyl)-1-methyl-7-oxo-4,5,6,7-tetrahydro-1H-pyrazolo[3,4-c]pyridine-3-carboxamide], the IC50 was found to be 37 nM.

As a reminder, the EC50 is the midpoint of the concentration-response curve. For orientation: IC50 means the concentration that gives 50% inhibition.

(Values after patent US20250353820A1, “ANTIVIRAL PYRAZOLOPYRIDINONE COMPOUNDS” (Novartis AG, priority 2019, published 2025).)
